Assay results published in patent US20240109917A1 (ACTELION PHARMACEUTICALS LTD, priority 2020, published 2024).

Each compound was assayed against VEGFR2, unphosphorylated (Homo sapiens (Human), UniProt P35968) (assay: VEGFR ADP GLO Assay).
Chain of VEGFR2, unphosphorylated (P35968 20-1356): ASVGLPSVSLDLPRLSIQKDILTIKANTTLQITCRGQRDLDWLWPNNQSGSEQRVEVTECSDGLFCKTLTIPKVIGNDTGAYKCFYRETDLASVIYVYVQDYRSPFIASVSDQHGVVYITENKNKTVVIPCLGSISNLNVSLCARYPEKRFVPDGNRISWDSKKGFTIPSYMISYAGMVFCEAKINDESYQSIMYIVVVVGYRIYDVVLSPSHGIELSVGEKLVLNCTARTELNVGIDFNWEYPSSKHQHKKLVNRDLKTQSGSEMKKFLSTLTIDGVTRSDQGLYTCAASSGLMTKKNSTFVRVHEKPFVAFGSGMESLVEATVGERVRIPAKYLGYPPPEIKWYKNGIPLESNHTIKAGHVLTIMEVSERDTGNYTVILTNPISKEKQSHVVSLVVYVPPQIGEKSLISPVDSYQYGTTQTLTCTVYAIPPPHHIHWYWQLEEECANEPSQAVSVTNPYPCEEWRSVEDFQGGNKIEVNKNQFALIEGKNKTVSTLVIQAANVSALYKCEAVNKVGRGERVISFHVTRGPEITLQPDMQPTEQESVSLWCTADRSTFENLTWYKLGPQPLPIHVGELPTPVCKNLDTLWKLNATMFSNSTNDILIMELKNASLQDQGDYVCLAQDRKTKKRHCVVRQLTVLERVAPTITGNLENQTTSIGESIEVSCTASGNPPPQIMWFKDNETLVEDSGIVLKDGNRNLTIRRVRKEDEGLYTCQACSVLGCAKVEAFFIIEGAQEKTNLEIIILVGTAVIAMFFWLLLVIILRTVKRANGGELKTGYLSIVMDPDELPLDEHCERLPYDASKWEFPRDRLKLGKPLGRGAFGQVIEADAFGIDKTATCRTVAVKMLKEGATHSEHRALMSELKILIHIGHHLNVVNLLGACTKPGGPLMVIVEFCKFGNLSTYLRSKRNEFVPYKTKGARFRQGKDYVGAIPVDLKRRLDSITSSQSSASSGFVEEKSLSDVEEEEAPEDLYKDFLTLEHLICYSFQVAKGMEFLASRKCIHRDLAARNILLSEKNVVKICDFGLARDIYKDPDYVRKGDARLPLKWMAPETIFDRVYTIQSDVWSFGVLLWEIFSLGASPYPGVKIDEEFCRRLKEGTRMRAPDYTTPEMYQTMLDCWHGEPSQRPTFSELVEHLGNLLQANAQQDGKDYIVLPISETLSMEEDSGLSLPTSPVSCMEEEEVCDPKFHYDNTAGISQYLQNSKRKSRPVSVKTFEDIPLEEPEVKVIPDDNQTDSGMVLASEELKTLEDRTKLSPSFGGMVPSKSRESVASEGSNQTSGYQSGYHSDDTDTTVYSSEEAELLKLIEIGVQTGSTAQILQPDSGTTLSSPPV
Format: biochemical
`Cc1ncc(NC(=O)CN2CCOCC23CC3)cc1NC(=O)c1cnn2cc(-c3cnn(C)c3)sc12` [Example 47, N-(5-(2-(7-oxa-4-azaspiro[2.5]octan-4-yl)acetamido)-2-methylpyridin-3-yl)-2-(1-methyl-1H-pyrazol-4-yl)pyrazolo[5,1-b]thiazole-7-carboxamide] was tested, and the IC50 was greater than 7.5 µM.
Work on `Cc1ncc(NC(=O)CN2CC3CC(C2)O3)cc1NC(=O)c1cnn2cc(-c3cnn(C)c3)sc12` [Example 45, N-(5-(2-(6-oxa-3-azabicyclo[3.1.1]heptan-3-yl)acetamido)-2-methylpyridin-3-yl)-2-(1-methyl-1H-pyrazol-4-yl)pyrazolo[5,1-b]thiazole-7-carboxamide] yielded an IC50 greater than 7.5 µM.
`CC[C@@H]1CN(CC(=O)Nc2cnc(C)c(NC(=O)c3cnn4cc(-c5cnn(C)c5)sc34)c2)CCO1` [Example 65, (R)—N-(5-(2-(2-ethylmorpholino)acetamido)-2-methylpyridin-3-yl)-2-(1-methyl-1H-pyrazol-4-yl)pyrazolo[5,1-b]thiazole-7-carboxamide] showed an IC50 greater than 7.5 µM.
With `Cc1ncc(NC(=O)CNC2CCC2)cc1NC(=O)c1cnn2cc(-c3cnn4c3OCCC4)sc12` [Example 494, N-(5-(2-(cyclobutylamino)acetamido)-2-methylpyridin-3-yl)-2-(6,7-dihydro-5H-pyrazolo[5,1-b][1,3]oxazin-3-yl)pyrazolo[5,1-b]thiazole-7-carboxamide] the IC50 was greater than 7.5 µM.
`COCC1CCCN1CC(=O)Nc1cnc(C)c(NC(=O)c2cnn3cc(-c4cnn(C)c4)sc23)c1` (centres unmarked) [Example 79, N-(5-(2-(2-(methoxymethyl)pyrrolidin-1-yl)acetamido)-2-methylpyridin-3-yl)-2-(1-methyl-1H-pyrazol-4-yl)pyrazolo[5,1-b]thiazole-7-carboxamide] showed an IC50 greater than 7.5 µM.
Compound `Cc1ncc(NC(=O)CCN2CCCC2(C)C)cc1NC(=O)c1cnn2cc(-c3cnn(C)c3)sc12` [Example 42, N-(5-(3-(2,2-dimethylpyrrolidin-1-yl)propanamido)-2-methyl-pyridin-3-yl)-2-(1-methyl-1H-pyrazol-4-yl)pyrazolo[5,1-b]thiazole-7-carboxamide] has an IC50 greater than 7.5 µM.
Compound `COCCn1cc(-c2cn3ncc(C(=O)Nc4cc(NC(=O)CCN5CCC6(CC6)C5)cnc4C)c3s2)cn1` [Example 91, N-(5-(3-(5-azaspiro[2.4]heptan-5-yl)propanamido)-2-methylpyridin-3-yl)-2-(1-(2-methoxyethyl)-1H-pyrazol-4-yl)pyrazolo[5,1-b]thiazole-7-carboxamide] has an IC50 greater than 7.5 µM.
`Cc1ncc(C(=O)NCCN2CCCC23CCC3)cc1NC(=O)c1cnn2cc(-c3cnn(C)c3)sc12` [Example 3, N-(5-((2-(5-azaspiro[3.4]octan-5-yl)ethyl)carbamoyl)-2-methylpyridin-3-yl)-2-(1-methyl-1H-pyrazol-4-yl)pyrazolo[5,1-b]thiazole-7-carboxamide] showed an IC50 of 6.98 µM.
For `Cc1ncc(NC(=O)CN2CCc3cccnc3C2)cc1NC(=O)c1cnn2cc(-c3cnn(C)c3)sc12` [Example 60, N-(5-(2-(5,6-dihydro-1,7-naphthyridin-7 (8H)-yl)acetamido)-2-methylpyridin-3-yl)-2-(1-methyl-1H-pyrazol-4-yl)pyrazolo[5,1-b]thiazole-7-carboxamide], the IC50 was greater than 7.5 µM.
For `Cc1ncc(NC(=O)OC[C@@H]2CCCN2C)cc1NC(=O)c1cnn2cc(-c3cn(C)nc3C)sc12` [Example 496, (S)-(1-methylpyrrolidin-2-yl)methyl (5-(2-(1,3-dimethyl-1H-pyrazol-4-yl)pyrazolo[5,1-b]thiazole-7-carboxamido)-6-methylpyridin-3-yl)carbamate], the IC50 was greater than 7.5 µM.
`CC[C@H]1COCCN1CC(=O)Nc1cnc(C)c(NC(=O)c2cnn3cc(-c4cnn(C)c4)sc23)c1` [Example 70, (S)—N-(5-(2-(3-ethylmorpholino)acetamido)-2-methylpyridin-3-yl)-2-(1-methyl-1H-pyrazol-4-yl)pyrazolo[5,1-b]thiazole-7-carboxamide] gave an IC50 greater than 7.5 µM.
`Cc1ncc(C(=O)NCCN2CCCC2(C)C)cc1NC(=O)c1cnn2cc(-c3ccnc(N4CCOCC4)c3)sc12` [Example 483, N-(5-((2-(2,2-dimethylpyrrolidin-1-yl)ethyl)carbamoyl)-2-methylpyridin-3-yl)-2-(2-morpholinopyridin-4-yl)pyrazolo[5,1-b]thiazole-7-carboxamide] was tested, and the IC50 was greater than 7.5 µM.
Work on `Cc1ncc(NC(=O)CN2CCC2(C)C)cc1NC(=O)c1cnn2cc(-c3cnn(C)c3)sc12` [Example 82, N-(5-(2-(2,2-dimethylazetidin-1-yl)acetamido)-2-methylpyridin-3-yl)-2-(1-methyl-1H-pyrazol-4-yl)pyrazolo[5,1-b]thiazole-7-carboxamide] yielded an IC50 greater than 7.5 µM.
`Cc1ncc(NC(=O)CN2C3CCC2COC3)cc1NC(=O)c1cnn2cc(-c3cnn(C)c3)sc12` [Example 44, N-(5-(2-(3-oxa-8-azabicyclo[3.2.1]octan-8-yl)acetamido)-2-methylpyridin-3-yl)-2-(1-methyl-1H-pyrazol-4-yl)pyrazolo[5,1-b]thiazole-7-carboxamide] showed an IC50 greater than 7.5 µM.
`Cc1ncc(NC(=O)CN2CCOC[C@H]2C)cc1NC(=O)c1cnn2cc(-c3cnn(C)c3)sc12` [Example 50, (R)-2-(1-methyl-1H-pyrazol-4-yl)-N-(2-methyl-5-(2-(3-methylmorpholino)acetamido)pyridin-3-yl)pyrazolo[5,1-b]thiazole-7-carboxamide] was tested, and the IC50 was greater than 7.5 µM.
Compound `Cc1ncc(NC(=O)CN2CCO[C@@H](C)C2)cc1NC(=O)c1cnn2cc(-c3cnn(C)c3)sc12` [Example 64, (S)-2-(1-methyl-1H-pyrazol-4-yl)-N-(2-methyl-5-(2-(2-methylmorpholino)acetamido)pyridin-3-yl)pyrazolo[5,1-b]thiazole-7-carboxamide] has an IC50 greater than 7.5 µM.
`CC[C@@H]1COCCN1CC(=O)Nc1cnc(C)c(NC(=O)c2cnn3cc(-c4cnn(C)c4)sc23)c1` [Example 69, (R)—N-(5-(2-(3-ethylmorpholino)acetamido)-2-methylpyridin-3-yl)-2-(1-methyl-1H-pyrazol-4-yl)pyrazolo[5,1-b]thiazole-7-carboxamide] gave an IC50 greater than 7.5 µM.
`Cc1ncc(C(=O)NCCN2CC3CCC2CC3)cc1NC(=O)c1cnn2cc(-c3ccnc(N4CCOCC4)c3)sc12` [Example 484, N-(5-((2-(2-azabicyclo[2.2.2]octan-2-yl)ethyl)carbamoyl)-2-methylpyridin-3-yl)-2-(2-morpholinopyridin-4-yl)pyrazolo[5,1-b]thiazole-7-carboxamide] was tested, and the IC50 was greater than 7.5 µM.
Compound `Cc1ncc(NC(=O)CCN2CC3CCC2CC3)cc1NC(=O)c1cnn2cc(-c3cnn(C)c3)sc12` [Example 43, N-(5-(3-(2-azabicyclo[2.2.2]octan-2-yl)propanamido)-2-methylpyridin-3-yl)-2-(1-methyl-1H-pyrazol-4-yl)pyrazolo[5,1-b]thiazole-7-carboxamide] has an IC50 greater than 7.5 µM.
`COCCn1cc(-c2cn3ncc(C(=O)Nc4cc(NC(=O)C(C)(C)CN5CCCC5(C)C)cnc4C)c3s2)cn1` [Example 488, N-(5-(3-(2,2-dimethylpyrrolidin-1-yl)-2,2-dimethyl-propanamido)-2-methylpyridin-3-yl)-2-(1-(2-methoxyethyl)-1H-pyrazol-4-yl)pyrazolo[5,1-b]thiazole-7-carboxamide] was tested, and the IC50 was greater than 7.5 µM.
`Cc1ncc(C(=O)NCCN2CCCC23CC3)cc1NC(=O)c1cnn2cc(-c3cnn(C)c3)sc12` [Example 2, N-(5-((2-(4-azaspiro[2.4]heptan-4-yl)ethyl)carbamoyl)-2-methylpyridin-3-yl)-2-(1-methyl-1H-pyrazol-4-yl)pyrazolo[5,1-b]thiazole-7-carboxamide] showed an IC50 greater than 7.5 µM.
With `Cc1ncc(NC(=O)CN2CCc3scnc3C2)cc1NC(=O)c1cnn2cc(-c3cnn(C)c3)sc12` [Example 61, N-(5-(2-(6,7-dihydrothiazolo[4,5-c]pyridin-5 (4H)-yl)acetamido)-2-methylpyridin-3-yl)-2-(1-methyl-1H-pyrazol-4-yl)pyrazolo[5,1-b]thiazole-7-carboxamide] the IC50 was greater than 7.5 µM.
In the case of `Cc1ncc(NC(=O)CN2CCC3(CCO3)CC2)cc1NC(=O)c1cnn2cc(-c3cnn(C)c3)sc12` [Example 81, N-(5-(2-(1-oxa-7-azaspiro[3.5]nonan-7-yl)acetamido)-2-methylpyridin-3-yl)-2-(1-methyl-1H-pyrazol-4-yl)pyrazolo[5,1-b]thiazole-7-carboxamide], the IC50 is reported as greater than 7.5 µM.
`Cc1ncc(NC(=O)CN2CCCCC23CC3)cc1NC(=O)c1cnn2cc(-c3cnn(CCO)c3)sc12` [Example 86, N-(5-(2-(4-azaspiro[2.5]octan-4-yl)acetamido)-2-methylpyridin-3-yl)-2-(1-(2-hydroxyethyl)-1H-pyrazol-4-yl)pyrazolo[5,1-b]thiazole-7-carboxamide] was tested, and the IC50 was greater than 7.5 µM.
In the case of `Cc1ncc(NC(=O)CN2Cc3ccncc3C2)cc1NC(=O)c1cnn2cc(-c3cnn(C)c3)sc12` [Example 77, N-(5-(2-(1H-pyrrolo[3,4-c]pyridin-2 (3H)-yl)acetamido)-2-methylpyridin-3-yl)-2-(1-methyl-1H-pyrazol-4-yl)pyrazolo[5,1-b]thiazole-7-carboxamide], the IC50 is reported as greater than 7.5 µM.
Work on `Cc1ncc(NC(=O)CN2CCCOCC2)cc1NC(=O)c1cnn2cc(-c3cnn(C)c3)sc12` [Example 80, N-(5-(2-(1,4-oxazepan-4-yl)acetamido)-2-methylpyridin-3-yl)-2-(1-methyl-1H-pyrazol-4-yl)pyrazolo[5,1-b]thiazole-7-carboxamide] yielded an IC50 greater than 7.5 µM.
For `Cc1ncc(NC(=O)CN2CCN(C)C(=O)C2)cc1NC(=O)c1cnn2cc(-c3cnn(C)c3)sc12` [Example 72, 2-(1-methyl-1H-pyrazol-4-yl)-N-(2-methyl-5-(2-(4-methyl-3-oxopiperazin-1-yl)acetamido)pyridin-3-yl)pyrazolo[5,1-b]thiazole-7-carboxamide], the IC50 was greater than 7.5 µM.
In the case of `Cc1ncc(NC(=O)CNC2(C)CCC2)cc1NC(=O)c1cnn2cc(-c3cnn4c3OCCC4)sc12` [Example 495, 2-(6,7-dihydro-5H-pyrazolo[5,1-b][1,3]oxazin-3-yl)-N-(2-methyl-5-(2-((1-methylcyclobutyl)amino)acetamido)pyridin-3-yl)pyrazolo[5,1-b]thiazole-7-carboxamide], the IC50 is reported as greater than 7.5 µM.
`COCCn1cc(-c2cn3ncc(C(=O)Nc4cc(NC(=O)CCN5CC(C)(C)C5)cnc4C)c3s2)cn1` [Example 93, N-(5-(3-(3,3-dimethylazetidin-1-yl)propanamido)-2-methylpyridin-3-yl)-2-(1-(2-methoxyethyl)-1H-pyrazol-4-yl)pyrazolo[5,1-b]thiazole-7-carboxamide] was tested, and the IC50 was greater than 7.5 µM.
